A word on the EC50: it is the concentration that produces a half-maximal response. Higher therefore signals a need for much substance. The inhibition is the drop in the measured response relative to a control, in per cent.

From patent US10206909B2, “3-(1H-pyrrolo[2,3-B]pyridin-2-yl)-1H-pyrazolo[4,3-B]pyridines and therapeutic uses thereof” (Samumed, LLC, priority 2015, dated 2019) come the findings set out here.

Type in all cases: cell-based
The subject of assay [1] is SW480 colon cancer cells. The experiment in a line: Cell viability assay (CellTiter-Blue). The conditions noted are these: Homo sapiens; for EC50: 96 h, SW480 cell viability, four days, CellTiter-Blue; for inhibition at 10 µM: given where EC50 >10 μM, SW480 viability, read-out: percent inhibition at 10 μM. The essentials:
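4-day exposure, 37 °C/5% CO2; ~2×10^3 SW480 cells/well; 8-pt 1:3 curve, 10–0.0045 μM, duplicates vs DMSO controls. Resazurin→resorufin fluorescence readout, ~3 h. EC50 by nonlinear fit; if >10 μM, % inhibition at 10 μM reported.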
Background: Resazurin is reduced to fluorescent resorufin, in cell work by metabolically active cells.

The subject of assay [2] is primary human fibroblasts derived from IPF patients (LL29 cells). In words: Inhibition of the fibrotic process: αSMA staining in TGF-β1 treated fibroblasts. To be noted: Fibroblast; for EC50: 96 h, LL29 cells, TGF-β1 20 ng/mL, 4 days, % αSMA positive cells; for inhibition at 10 µM: given where EC50 >10 μM, LL29, αSMA, read-out: percent inhibition at 10 μM. The essentials: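 EC50 from triplicate-well dose-response fits of % αSMA-positive cells, normalized to TGF-β1-stimulated DMSO controls, with SYTOX-positive dead cells excluded. LL29 IPF fibroblasts received compound at 10 μM–1.87 nM (0.1% DMSO) plus 20 ng/mL TGF-β1 for 4 days in 1% FBS medium; above 10 μM, % inhibition at 10 μM reported.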

Assay [3] relates to Wnt activity (Sp5-Luc reporter, SW480 colon carcinoma cells). The experiment in a line: Wnt activity screening assay: Sp5-Luc reporter gene assay in SW480 cells. The conditions noted are these: Homo sapiens; for EC50: SW480 cells, overnight incubation; for inhibition at 10 µM: given where EC50 >10 μM, SW480, read-out: percent inhibition at 10 μM. The essentials: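 Luminescence (BrightGlo) read after overnight 37 °C exposure of Sp5-Luc SW480 reporter cells, 4,000/well in 1% FBS, to compound dosed 1:3 over 10 points from 10 μM with 0.1% DMSO. Values normalized to DMSO-only cells, fitted with variable-slope four-parameter model; where EC50 exceeds 10 μM, % inhibition at 10 μM reported.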
(In general: In a reporter assay the amount or activity of a reporter protein is the signal.)

As for `CN(C)c1cncc(-c2ccc3[nH]nc(-c4cc5c(-c6ccoc6)ccnc5[nH]4)c3n2)c1` [Compound 315, 5-(3-(4-(Furan-3-yl)-1H-pyrrolo[2,3-b]pyridin-2-yl)-1H-pyrazolo[4,3-b]pyridin-5-yl)-N,N-dimethylpyridin-3-amine], the concentration giving a half-maximal response (EC50) in assay [1] is greater than 10 µM; in assay [2], 5.53 µM; in assay [3], greater than 10 µM. In addition, the inhibition at 10 µM came to 6.1% in assay [1] and 6.6% in assay [3].
With `O=C(Cc1ccccc1)Nc1cncc(-c2ccc3[nH]nc(-c4cc5c(-c6ccoc6)ccnc5[nH]4)c3n2)c1` [Compound 318, N-(5-(3-(4-(Furan-3-yl)-1H-pyrrolo[2,3-b]pyridin-2-yl)-1H-pyrazolo[4,3-b]pyridin-5-yl)pyridin-3-yl)-2-phenylacetamide], the EC50 in assay [1], in assay [2] and in assay [3] was greater than 10 µM each time. In addition, the inhibition at 10 µM in assay [1] turned out to be 3%; in assay [2], 25.7%; in assay [3], 3.4%.
With `c1csc(-c2ccnc3[nH]c(-c4n[nH]c5ccc(-c6ccncc6)nc45)cc23)c1` [Compound 354, 5-(Pyridin-4-yl)-3-(4-(thiophen-2-yl)-1H-pyrrolo[2,3-b]pyridin-2-yl)-1H-pyrazolo[4,3-b]pyridine], the values for the EC50 in assay [1], in assay [2] and in assay [3] were greater than 10 µM, 2.25 µM and greater than 10 µM, respectively. Further, the figures for the inhibition at 10 µM in assay [1] and in assay [3] were 39.8% and 14.6%, respectively.
`c1csc(-c2ccnc3[nH]c(-c4n[nH]c5ccc(-c6cncnc6)nc45)cc23)c1` [Compound 363, 5-(Pyrimidin-5-yl)-3-(4-(thiophen-2-yl)-1H-pyrrolo[2,3-b]pyridin-2-yl)-1H-pyrazolo[4,3-b]pyridine]: the EC50 was greater than 10 µM in assay [1], 0.546 µM in assay [2] and greater than 10 µM in assay [3]. The inhibition at 10 µM in assay [1] stood at 29.3%; in assay [3], 29.8%.
For the molecule `CN(C)CCNc1cc(F)cc(-c2ccnc3[nH]c(-c4n[nH]c5ccc(-c6ccncc6)nc45)cc23)c1` [Compound 466, N^1-(3-Fluoro-5-(2-(5-(pyridin-4-yl)-1H-pyrazolo[4,3-b]pyridin-3-yl)-1H-pyrrolo[2,3-b]pyridin-4-yl)phenyl)-N^2,N^2-dimethylethane-1,2-diamine], the EC50 in assay [1] was greater than 10 µM; in assay [2], 0.391 µM; in assay [3] it was greater than 10 µM. The inhibition at 10 µM amounted to 16.8% in assay [1] and 8.6% in assay [3].
On to `CN(C)CCNc1cc(F)cc(-c2ccnc3[nH]c(-c4n[nH]c5ccc(-c6cncc(CNCC7CCCC7)c6)nc45)cc23)c1` [Compound 473, N^1-(3-(2-(5-(5-(((Cyclopentylmethyl)amino)methyl)pyridin-3-yl)-1H-pyrazolo[4,3-b]pyridin-3-yl)-1H-pyrrolo[2,3-b]pyridin-4-yl)-5-fluorophenyl)-N^2,N^2-dimethylethane-1,2-diamine], for which the results for the EC50 in assay [1], in assay [2] and in assay [3] were 2.26 µM, 2 µM and 4.67 µM, respectively.
In the case of `Fc1cccc(-c2ccnc3[nH]c(-c4n[nH]c5ccc(-c6cncc(OCc7ccccc7)c6)nc45)cc23)c1` [Compound 518, 5-(5-(Benzyloxy)pyridin-3-yl)-3-(4-(3-fluorophenyl)-1H-pyrrolo[2,3-b]pyridin-2-yl)-1H-pyrazolo[4,3-b]pyridine], the EC50 was greater than 10 µM in assay [1], 2.45 µM in assay [2] and greater than 10 µM in assay [3]. The inhibition at 10 µM in assay [1] came to 17.3%; in assay [3] it was 16.7%.
`Oc1cncc(-c2ccc3[nH]nc(-c4cc5c(-c6ccc(F)cc6)ccnc5[nH]4)c3n2)c1` [Compound 533, 5-(3-(4-(4-Fluorophenyl)-1H-pyrrolo[2,3-b]pyridin-2-yl)-1H-pyrazolo[4,3-b]pyridin-5-yl)pyridin-3-ol]: the EC50 in assay [1] is greater than 10 µM; in assay [2], greater than 10 µM; in assay [3] it was 0.31 µM. The inhibition at 10 µM in assay [1] stood at 15.4%; in assay [2], 43%.
Regarding `CN(C)CCOc1cncc(-c2ccc3[nH]nc(-c4cc5c(-c6cccnc6)ccnc5[nH]4)c3n2)c1` [Compound 563, N,N-Dimethyl-2-((5-(3-(4-(pyridin-3-yl)-1H-pyrrolo[2,3-b]pyridin-2-yl)-1H-pyrazolo[4,3-b]pyridin-5-yl)pyridin-3-yl)oxy)ethan-1-amine], the EC50 was greater than 10 µM in assay [1], 3.04 µM in assay [2] and greater than 10 µM in assay [3]. In addition, the inhibition at 10 µM worked out at 0% in assay [1] and 7.2% in assay [3].
Consider `c1cc(-c2ccnc3[nH]c(-c4n[nH]c5ccc(-c6cncc(OCCN7CCCC7)c6)nc45)cc23)ccn1` [Compound 578, 3-(4-(Pyridin-4-yl)-1H-pyrrolo[2,3-b]pyridin-2-yl)-5-(5-(2-(pyrrolidin-1-yl)ethoxy)pyridin-3-yl)-1H-pyrazolo[4,3-b]pyridine], for which the EC50 in assay [1] was greater than 10 µM; in assay [2], 1.24 µM; in assay [3], greater than 10 µM. The inhibition at 10 µM was 14.7% in assay [1] and 7.7% in assay [3].
For `c1cc(N2CCCCC2)c2cc(-c3n[nH]c4ccc(C5CCNCC5)nc34)[nH]c2n1` [Compound 601, 3-(4-(Piperidin-1-yl)-1H-pyrrolo[2,3-b]pyridin-2-yl)-5-(piperidin-4-yl)-1H-pyrazolo[4,3-b]pyridine], the EC50 in assay [1], in assay [2] and in assay [3] was greater than 10 µM each time. For the same molecule, the inhibition at 10 µM was determined as 40.7% in assay [1], 20.1% in assay [2] and 3.5% in assay [3].
Take `CN1CCN(c2ccnc3[nH]c(-c4n[nH]c5ccc(-c6cn[nH]c6)nc45)cc23)CC1` [Compound 635, 3-(4-(4-Methylpiperazin-1-yl)-1H-pyrrolo[2,3-b]pyridin-2-yl)-5-(1H-pyrazol-4-yl)-1H-pyrazolo[4,3-b]pyridine]: the half-maximal effective concentration (EC50) in assay [1] was greater than 10 µM; in assay [2], 1.5 µM; in assay [3], greater than 10 µM. Further, the inhibition at 10 µM is 13.3% in assay [1] and 13.4% in assay [3].
Turning to `Cn1cc(-c2ccc3[nH]nc(-c4cc5cccnc5[nH]4)c3n2)cn1` [Compound 652, 5-(1-Methyl-1H-pyrazol-4-yl)-3-(1H-pyrrolo[2,3-b]pyridin-2-yl)-1H-pyrazolo[4,3-b]pyridine], the EC50 in assay [1] is greater than 10 µM; in assay [2] it was 1.21 µM; in assay [3] it was 2.26 µM. Further, the inhibition at 10 µM in assay [1] was 29.2%.
With `O=C(CC1CCNCC1)Nc1cncc(-c2ccc3[nH]nc(-c4cc5c(-c6ccoc6)ccnc5[nH]4)c3n2)c1` [Compound 689, N-(5-(3-(4-(Furan-3-yl)-1H-pyrrolo[2,3-b]pyridin-2-yl)-1H-pyrazolo[4,3-b]pyridin-5-yl)pyridin-3-yl)-2-(piperidin-4-yl)acetamide], the EC50 in assay [1] is greater than 10 µM; in assay [2] it was 2.18 µM; in assay [3] it was greater than 10 µM. In addition, the values for the inhibition at 10 µM in assay [1] and in assay [3] were 9.2% and 10.9%, respectively.
For `c1csc(-c2ccnc3[nH]c(-c4n[nH]c5ccc(-c6cncc(OC7CCCCC7)c6)nc45)cc23)c1` [Compound 703, 5-(5-(Cyclohexyloxy)pyridin-3-yl)-3-(4-(thiophen-2-yl)-1H-pyrrolo[2,3-b]pyridin-2-yl)-1H-pyrazolo[4,3-b]pyridine], the EC50 in assay [1] is greater than 10 µM; in assay [2], 1.62 µM; in assay [3], 3.64 µM. The inhibition at 10 µM in assay [1] is 52.9%.
As to `c1csc(-c2ccnc3[nH]c(-c4n[nH]c5ccc(-c6cncc(OC7CCNCC7)c6)nc45)cc23)c1` [Compound 704, 5-(5-(Piperidin-4-yloxy)pyridin-3-yl)-3-(4-(thiophen-2-yl)-1H-pyrrolo[2,3-b]pyridin-2-yl)-1H-pyrazolo[4,3-b]pyridine], the values for the EC50 in assay [1], in assay [2] and in assay [3] were greater than 10 µM, 1.82 µM and 3.71 µM, respectively. Also, in assay [1], the inhibition at 10 µM stood at 49.5%.
